Results from patent US12714683B2, “Treatment of CNS disorders with sleep disturbances” (University of Copenhagen, priority 2019, dated 2026).

Assays:
[1] = system: DTA narcolepsy mouse model; assay: DTA mouse model of narcolepsy, sleep-wake EEG/EMG and cataplexy; type: in vivo; conditions: two-way ANOVA, p=0.0017, n=5-6; FIG. 3
Description: (§1) Using the DTA narcolepsy mouse model we are determining changes in sleepwake EEG/EMG patterns (including cataplexy) at different time points (1 day to 3 weeks) under the influence of a compound of Formula I (Ph-HTBA). After drug cessation, EEG/EMG changes are then further mapped for up to 4 weeks. Under anesthesia with isoflurane (2% to 2.5% in O2) electrodes are placed in the scull and neck muscles of the mice. After 5-10 days recovery the electrodes are connected to a recording system, and EEG/EMG signals are recorded with synchronised video recordings. From the data, sleep/wake parameters and cataplexy episodes are scored and calculated FIG. 3).

[2] = system: hypocretin knock-out mouse model; assay: Hypocretin knock-out mouse model of narcolepsy, sleep-wake EEG/EMG and cataplexy; type: in vivo; conditions: for cataplexy: mixed-effects model with post hoc Sidak, FIG. 4
Description: as §1, with “hypocretin knock-out” for “DTA narcolepsy”, “determine” for “are determining”, “sleep-wake” for “sleepwake”, “compound (HOCPCA)” for “compound”, “I.” for “I (Ph-HTBA).”, “(FIG. 4-5).” for “FIG. 3).”

CaMK2a [3] = target: CaMK2a (Homo sapiens, UniProt Q9UQM7); conditions: cited from earlier work
Chain of CaMK2a (Homo sapiens, UniProt Q9UQM7) (Q9UQM7 whole entry): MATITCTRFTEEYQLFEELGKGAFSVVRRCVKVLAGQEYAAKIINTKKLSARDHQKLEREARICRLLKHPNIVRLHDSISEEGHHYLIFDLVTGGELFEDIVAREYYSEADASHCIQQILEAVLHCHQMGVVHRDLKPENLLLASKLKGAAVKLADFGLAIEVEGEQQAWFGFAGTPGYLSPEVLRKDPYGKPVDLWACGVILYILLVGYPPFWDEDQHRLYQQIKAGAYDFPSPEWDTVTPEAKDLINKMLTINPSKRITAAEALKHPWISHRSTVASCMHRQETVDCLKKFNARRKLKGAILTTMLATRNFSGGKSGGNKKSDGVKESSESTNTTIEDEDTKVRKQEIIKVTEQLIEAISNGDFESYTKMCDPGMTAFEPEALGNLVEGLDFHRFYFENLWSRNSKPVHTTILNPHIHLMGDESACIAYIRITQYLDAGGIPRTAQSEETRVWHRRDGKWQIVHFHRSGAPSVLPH

GABAB receptors = GABAB receptors (Homo sapiens, UniProt Q9UBS5); conditions: cited from earlier work
Chain of GABAB receptors (Q9UBS5 15-961 limits assumed): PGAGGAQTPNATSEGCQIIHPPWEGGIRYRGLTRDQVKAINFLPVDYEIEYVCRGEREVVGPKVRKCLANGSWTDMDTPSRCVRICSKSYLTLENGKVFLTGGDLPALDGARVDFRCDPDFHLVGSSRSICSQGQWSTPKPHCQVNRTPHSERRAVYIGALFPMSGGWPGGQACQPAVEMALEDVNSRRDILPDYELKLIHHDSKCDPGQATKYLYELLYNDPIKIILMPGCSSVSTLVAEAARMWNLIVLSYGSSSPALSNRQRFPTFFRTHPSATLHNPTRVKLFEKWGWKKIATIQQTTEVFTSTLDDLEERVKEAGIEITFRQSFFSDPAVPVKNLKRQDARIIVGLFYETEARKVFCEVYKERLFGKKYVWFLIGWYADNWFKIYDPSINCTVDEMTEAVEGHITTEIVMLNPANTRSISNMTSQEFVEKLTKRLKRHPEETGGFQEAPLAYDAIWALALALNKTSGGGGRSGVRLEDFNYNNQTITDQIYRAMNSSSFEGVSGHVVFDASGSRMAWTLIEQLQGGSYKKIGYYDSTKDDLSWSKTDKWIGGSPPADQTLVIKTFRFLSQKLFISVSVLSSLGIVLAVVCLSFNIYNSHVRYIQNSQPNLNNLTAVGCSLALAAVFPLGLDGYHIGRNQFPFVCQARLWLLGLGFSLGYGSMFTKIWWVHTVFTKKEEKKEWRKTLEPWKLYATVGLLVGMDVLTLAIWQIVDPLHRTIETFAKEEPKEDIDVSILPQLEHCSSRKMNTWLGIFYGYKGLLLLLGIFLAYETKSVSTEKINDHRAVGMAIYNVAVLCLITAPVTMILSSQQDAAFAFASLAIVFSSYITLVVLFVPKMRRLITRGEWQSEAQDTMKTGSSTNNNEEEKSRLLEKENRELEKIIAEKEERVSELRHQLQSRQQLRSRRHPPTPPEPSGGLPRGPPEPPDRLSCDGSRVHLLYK
Chain of GABAB receptors (O75899 42-941 partner): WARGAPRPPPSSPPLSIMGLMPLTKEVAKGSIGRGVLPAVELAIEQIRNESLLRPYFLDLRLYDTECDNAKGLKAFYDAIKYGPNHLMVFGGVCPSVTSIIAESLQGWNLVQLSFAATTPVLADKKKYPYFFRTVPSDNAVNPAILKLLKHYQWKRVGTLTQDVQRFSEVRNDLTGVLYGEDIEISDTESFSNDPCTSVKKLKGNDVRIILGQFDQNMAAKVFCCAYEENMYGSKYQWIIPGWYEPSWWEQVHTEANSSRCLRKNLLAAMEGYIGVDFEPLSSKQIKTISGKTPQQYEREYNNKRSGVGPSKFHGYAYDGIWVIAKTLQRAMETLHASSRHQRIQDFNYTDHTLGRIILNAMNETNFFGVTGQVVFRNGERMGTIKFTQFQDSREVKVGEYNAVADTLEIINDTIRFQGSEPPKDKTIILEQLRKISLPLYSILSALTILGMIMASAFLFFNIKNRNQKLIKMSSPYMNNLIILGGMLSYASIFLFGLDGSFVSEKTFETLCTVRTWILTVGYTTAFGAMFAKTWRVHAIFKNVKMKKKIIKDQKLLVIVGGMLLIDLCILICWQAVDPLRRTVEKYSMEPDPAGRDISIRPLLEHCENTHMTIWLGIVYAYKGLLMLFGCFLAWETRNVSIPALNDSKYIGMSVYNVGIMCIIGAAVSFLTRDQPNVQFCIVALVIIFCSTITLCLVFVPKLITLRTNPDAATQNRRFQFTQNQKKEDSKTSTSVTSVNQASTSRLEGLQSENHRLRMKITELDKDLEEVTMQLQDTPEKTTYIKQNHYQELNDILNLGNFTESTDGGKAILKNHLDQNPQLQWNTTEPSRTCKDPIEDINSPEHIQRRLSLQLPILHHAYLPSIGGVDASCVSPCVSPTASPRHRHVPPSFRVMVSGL

CaMK2a [4] = target: T1, CaMK2a (Mus musculus, UniProt P11798); assay: Mouse brain 3H-HOCPCA autoradiography (Angelman syndrome Ube3a m-/p+ vs wild-type brain slices); type: binding; conditions: Ube3a m-/p+ (HET, Angelman syndrome) mice vs WT; 1 nM radioligand; most pronounced in hippocampus; FIG. 1
T1 construct: mouse brains from either (Ube3a^m−/p+) or wildtype mice, were dissected, sliced on a cryostat; from tissue; host or cells: mouse brain slices (Ube3a m-/p+ and wild-type)
T1 sequence (P11798 whole entry): as the sequence (Q9UQM7 whole entry) above, with S324N counted along it

rat CaMK2a = assay: 3H-HOCPCA filtration binding to recombinant wild-type or mutated CaMK2a expressed in HEK293T cells; conditions: hub domain mutations Arg433Gln, Arg453Gln, Arg469Cys/Arg469Gln; HEK whole cell homogenates; expression confirmed by WB; FIG. 2
Procedure: ^3H-HOCPCA Binding to Recombinant CaMK2a Expressed in HEK293T Cells
HEK293T cells were cultured using standard conditions, using Dulbecco's modified Eagle Medium with GlutaMax, 10% fetal bovine serum and 1% penicillin-streptomycin, and incubated at 37° C. in a humidified atmosphere of […] and 5% CO2. Site-directed mutagenesis was done using point mutations and performed by GenScript USA Inc. Cells were transfected with wild-type or mutated cmyc-tagged rat CaMK2a (Origene construct RR201121), using polyethimine, linear, MW 25000 (Polysciences Inc., Warrington, PA, USA). Whole cell homogenates were prepared 48 hr post-transfection by washing the cells with ice-cold 1×PBS and harvesting by scraping. Cells were collected and centrifuged for 10 min at 1000×g. Cell pellets were resuspended in ice-cold 1×PBS and homogenized using 2×1 mm zirkonium beads in a bullet blender for 20 s at max speed (NextAdvance, NY, USA). Homogenates were cleared by centrifugation (10 min, 4° C., […]). Protein concentration was determined using the Bradford protein assay. […] Nonspecific binding was determined with 1-10 mM GHB. […] The dried filters were added scintillation liquid and radioactivity measured on a Tricarb 2100 Scintillation counter (Packard). […]
Total expression levels of CaMK2a were assessed by Western blot with anti-myc-Alexa488 (MA1980-A488, ThermoFisher Scientific). […]

[5] = system: mouse model of narcolepsy type 1; conditions: Black et al. J Neurosci 2014; cited from earlier work

O=C(O)/C=C1\CCCc2cc(-c3ccccc3)ccc2C1O (stereo not drawn) [Ph-HTBA]
treatment effect on sleep/wake parameters and cataplexy episodes [1]: overall statistical significant effect

O=C(O)C1=CC(O)CC1 (stereo not drawn) [HOCPCA, 3-hydroxycyclopent-1-enecarboxylic acid]
cataplexy ([2]; day 8, p=0.044): decreases cataplexy significantly
cataplexy ([2]; day 15, p=0.010): decreases cataplexy significantly
wakefulness, medium long wake bouts ([2]; p=0.01, two-way ANOVA with post hoc Dunnett): significant decrease of medium long wake bouts

O=C(O)CCCO [GHB]
binding affinity to specific protein in neurons (CaMK2a) (CaMK2a [3]): high affinity (nanomolar to micromolar)
binding affinity to GABAB receptors (GABAB receptors): low affinity (millimolar)

O=C(O)C1=CC(O)CC1 (stereo not drawn) [^3H-HOCPCA]
3H-HOCPCA binding levels in brain slices (CaMK2a [4]): Increased Binding
3H-HOCPCA binding to mutated CaMK2a compared to wild-type (rat CaMK2a): completely abolished binding

NCC(CC(=O)O)c1ccc(Cl)cc1 (stereo not drawn) [baclofen]
efficacy on narcolepsy symptoms [5]: has efficacy on narcolepsy symptoms
